# Results as given in ChEMBL document CHEMBL1157539, “Thousands of chemical starting points for antimalarial lead identification” (Nature, 2010).
# Tested on: Plasmodium falciparum
# Test: GSK_TCMDC: Inhibition of Plasmodium falciparum 3D7 in whole erythrocytes, using parasite LDH activity as an index of growth.
# Assay type: functional, organism-based
# Conditions: not given
row,Compound,XC50 [nM]
1,Cc1nc2c(c(O)c1Cl)-c1ccc(Oc3cccc(C(F)(F)F)c3)cc1C2=O,36.9

# Same assay, conditions: Plasmodium falciparum, 3D7
row,Compound,XC50 [nM]
1,COc1ccc(CNCC(C)(C)c2nc(-c3ccc(Cl)c(O)c3)c(-c3ccncc3)[nH]2)cc1,357
2,CCN(CC)CCNc1nccc(N(C)c2ccc(NC(=O)Nc3cc(C(F)(F)F)ccc3F)cc2)n1,549
3,Cc1ccc(N2CCc3c(-c4cc5cccnc5nc4C)cc(C)nc32)c(Cl)c1,577
4,COc1ccc2nccc([C@@H](O)CN3CCC(NC(=O)c4ccc(Cl)c(OC)c4)CC3)c2c1,792
5,CC(C)NCc1ccc(-c2ccc(NC(=O)c3cccc(C#N)c3)cc2)cc1,654
6,COc1ccccc1Nc1nc(C)cc(NCc2ccc(-n3ccnc3)cc2)n1,1050
7,Oc1cccc(-c2nc3cc(C4=NC5CCCCC5N4)ccc3[nH]2)c1 (stereo unspecified),592
8,CCc1sc(N2CCC(C)CC2)nc1C(=O)Nc1ccc(F)cc1C(F)(F)F,1090
9,CC(C)COc1ccc(Cl)cc1Nc1nc(-c2nc3ccccc3[nH]2)cs1,877
10,COc1ccc(CCCON2C(=N)N=C(N)NC2(C)C)cc1,3.2
11,COc1ccc2nc3cc(Cl)ccc3c(Nc3ccc(Oc4ccc(Nc5c6ccc(Cl)cc6nc6ccc(OC)cc56)cc4)cc3)c2c1,859
12,COc1cc2c(cc1S(=O)(=O)c1ccc(NC(=O)c3cccc(C(F)(F)F)c3)cc1)CCN(C)CC2,1380
13,COc1ccccc1Nc1nc(C)cc(NCc2ccc(-c3c(C)noc3C)cc2)n1,872
14,N#Cc1ccc(C(=O)Nc2cc(-c3cccc(O)c3)cc3[nH]ncc23)cc1,1370
15,N#Cc1ccc2c(c1)CCN(CCCn1c(-c3ccc4ccccc4c3)nc3ccncc31)CC2,198
16,CC(C)(CNC(=O)[C@@H]1CCCN(Cc2ccc(Cl)cc2)C1)c1nc(-c2ccc(Cl)c(O)c2)c(-c2ccncc2)[nH]1,941
17,Cc1[nH]n(-c2cccc(C(F)(F)F)c2)c(=O)c1-c1ccc(Cl)cc1,856
18,CC1CCC(C[C@@H](C(=O)N[C@H](C(=O)Nc2nccs2)[C@@H](C)O)[C@H](CCC(F)(F)F)N(O)C=O)CC1 (stereo partly specified),535
19,CCOc1cc(C)ccc1N1CCN(CCCCNC(=O)c2ccc(NC(=O)c3ccc(Cl)cc3)cc2)CC1,637
20,c1ccc([C@H]2CN3CCSC3=N2)cc1 [LEVAMISOLE],622
21,O=c1c2sc(-c3ccc(Cl)cc3)cc2ncn1Cc1ccc(OCCN2CCCC2)c2ccccc12,252
22,CCn1cc2c3c(cc(C(=O)N[C@@H](Cc4ccccc4)[C@H](O)CNCc4cccc(OC)c4)cc31)N(C)S(=O)(=O)CC2,667
23,O=C(/C=C/c1ccc(Cl)c(Cl)c1)N1CCC(CCCN2CCC(c3c[nH]c4ccccc34)CC2)CC1,707
24,CN(C)CCOc1cc(NC(=O)Nc2ccc(Oc3ccccc3)cc2)ccc1I,890

row,Compound,XC50 [nM]
1,O=C1C2C(c3ccc(Cl)c(Cl)c3)N3CC(OCc4ccccc4)CC3(C(=O)O)C2C(=O)N1c1ccc(Br)cc1 (stereo unspecified),336
2,Cn1nc(C(F)(F)F)c(-c2ccc(Br)cc2)c1NC(=O)Cc1ccccc1F,157
3,CCc1sc(-c2ccc(C(C)(C)C)cc2)nc1C(=O)NCCCN1CCCC1=O,988
4,CC(C)(C)N1CCC(N(Cc2ccc(-c3ccc(C(F)(F)F)cc3)cc2)C(=O)Cn2c(CCc3cccc(F)c3F)cc(=O)c3cccnc32)CC1,705
5,CCOC(=O)c1cc(C(=O)OC)c2ccccn12,223
6,COCCN1CCC(N(Cc2ccc(-c3ccc(C(F)(F)F)cc3)cc2)C(=O)Cn2c(CCc3cccc(F)c3F)cc(=O)c3c2CCC3)CC1,1320
7,N#Cc1ccc(-c2ccc(C(=O)NCCCCN3CCC(n4cnc5ccccc54)CC3)cc2)cc1,910
8,Cc1ccc(Cn2cnc3cc(C(=O)Nc4ccc(-c5cccc(CN(C)C)c5)cc4)ccc3c2=O)o1,625
9,O=C(Nc1cccc(-c2ccc(-c3nc4cc(F)ccc4[nH]3)s2)c1)c1ccncc1,703
10,COC(=O)c1cccc(CNCc2cccc(-c3ccc(-c4nc5cccc(C)c5[nH]4)s3)c2)c1,211
11,COc1cc(OC)cc(-c2nn(-c3ccc([N+](=O)[O-])cc3Cl)c(=S)n2CC2CCCO2)c1 (stereo unspecified),961
12,Cc1cc(N[C@@H](CC(C)C)C(=O)NCc2cccc(F)c2)nc(NCCc2ccccc2)n1,1080
13,Cc1[nH]cc(Br)c(=O)c1-c1ccc(Oc2ccc(OC(F)(F)F)cc2)cc1,325
14,Cc1ccc(C(=O)Nc2ccc(-c3nc4ccccc4[nH]3)cc2)cc1S(=O)(=O)N1CCOCC1,1210
15,CC(=O)Nc1nc(C(=O)Nc2ccc(-c3cccc(-c4nc5cccc(C)c5[nH]4)c3)cc2)cs1,232
16,Cc1nc(Nc2ccc(F)cc2)nc(N2CCc3ccccc3C2C)c1CO (stereo unspecified),741
17,Cc1cc(C)cc(OCC(O)CN(Cc2cc(Cl)cc(Cl)c2)C(=O)Nc2ccccc2Cl)c1 (stereo unspecified),944
18,O=C(Nc1ccc2ccccc2c1)N(CCCn1ccnc1)Cc1csc(-c2ccc(CNCc3ccccc3)cc2)n1,739
19,COc1ccc(NC(=O)[C@H](Cc2ccccc2)Nc2cc(C)nc(NCCOc3ccccc3)n2)cc1,1070
20,Cc1sc2nc(CSc3ccccc3)nc(N3CCN(CC(=O)N4CCCC4)CC3)c2c1C,1260
21,COc1cc(-c2cc(-c3ccc(S(C)(=O)=O)cc3)cnc2N)ccc1O,101
22,COc1ccc(Nc2nc(C)cc(NC3CCCC3)n2)cc1,872
23,Cc1noc(-c2cccs2)c1C(=O)NC(C)c1cccc2ccccc12 (stereo unspecified),129
24,CC(C)c1ccc(NC(=O)Nc2ccc(Cn3ncc(N4CCCNCC4)c(Cl)c3=O)cc2)cc1,1050

row,Compound,XC50 [nM]
1,CC(C)CCn1c(Sc2ccc(C#N)c([N+](=O)[O-])c2)nnc1-c1ccc(N(C)C)cc1,786
2,COc1cc(NCC(CN)Cc2ccc3c(c2)OCO3)nc2ccccc12 (stereo unspecified),820
3,Cc1ccc(CCOCCCCCNCC(O)c2cc(Cl)c(N)c(Cl)c2)cc1 (stereo unspecified),945
4,NCc1ccc(Nc2nccc(Nc3ccc(-c4ccccc4)cc3)n2)cc1,892
5,O=C(CCCC(=O)Nc1ccc(C2=NCCN2)cc1)Nc1ccc(C2=NCCN2)cc1,106
6,Oc1ccc(CCNc2nc(NCc3cccc(-c4cc(C(F)(F)F)ccc4Cl)c3)nc(N3CCNCC3)n2)cc1,1780
7,CN(C)C(S)=NN=Cc1cccc(O)c1O,872
8,c1cncc(Oc2ccc(Nc3ccnc4cc(-c5cccc(CN6CCOCC6)c5)ccc34)cc2)c1,305
9,COc1cccc(C(=O)NCCc2cccc(Cl)c2)c1OCc1ccccc1,1260
10,CCOc1ccc2[nH]c(C)cc(=NN=Cc3ccccc3Cl)c2c1,191
11,CCN(CC)CCN(Cc1ccc(-c2ccc(C(F)(F)F)cc2)cc1)C(=O)Cn1c(CCc2ccc(F)cc2)nc(=O)c2sccc21,670
12,COc1ccc2nccc([C@@H](O)CN3CCC(NCc4ccc5c(c4)OCCO5)CC3)c2c1,288
13,Cc1cc(O)c(-c2ccc(S(=O)(=O)c3ccc(Cl)cc3)cc2)c(C)n1,877
14,Cc1cc(CN2CC[C@H](NC(=O)c3ccc(Cl)c(Cl)c3)C2)ccc1OC1CCN(C)C1 (stereo partly specified),947
15,CCOc1c(Br)cc(C)cc1CNCCCNc1nc2ccccc2[nH]1,666
16,COc1ccc(CNCc2cccc(-c3ccc(-c4nc5cccc(C)c5[nH]4)cc3)c2)cc1,237
17,CN1CCN(c2ccnc3ccc(NC(=O)Nc4ccc5c(c4)CCCC5=O)cc23)CC1,132
18,Cc1c(-c2cccc(CNCCc3ccc(Cl)cc3)c2)cnc(N)c1C,1040
19,COc1ccc2nccc(N3CCC(SCCNS(=O)(=O)c4ccc5c(c4)OCCO5)C3)c2n1 (stereo unspecified),981
20,COc1ccc(OC)c2c1CCN(C)C2Cc1cccc2ccccc12 (stereo unspecified),1050
21,CCCCC1(c2ccc(F)cc2)NC(=O)N(CC(=O)c2cc(C)n(Cc3ccco3)c2C)C1=O (stereo unspecified),983
22,CC(C)(C)c1ccc(OCC(=O)NC2CCN(c3ccnc4cc(Cl)ccc34)C2)cc1 (stereo unspecified),135
23,COc1cc(C)nc2ccc(NC(=O)COCC(=O)Nc3ccc4nc(C)cc(OC)c4c3)cc12,917
24,Cc1ccccc1CNc1noc(-c2c(F)cccc2Cl)n1,722

row,Compound,XC50 [nM]
1,Cc1cc(N[C@@H](Cc2ccccc2)C(=O)NC2CCCC2)nc(NCCc2cccs2)n1,1400
2,Cc1cc(C(=O)CSc2nc3ccccc3n2-c2ccccc2)c(C)n1C1CCS(=O)(=O)C1 (stereo unspecified),1000
3,COc1ccc2[nH]c(C)cc(=NN=Cc3cccc(Cl)c3)c2c1,632
4,O=C(Nc1cccc(C(F)(F)F)c1)N1CCOC(CCN2CCC3(CCc4ccccc43)CC2)(c2ccc(Cl)c(Cl)c2)C1 (stereo unspecified),736
5,CC(C)COc1ccc(Cl)cc1Cc1ccc(-c2nc3ccc(F)c(F)c3[nH]2)o1,942
6,C=CCOC(=O)N1CCC(CNCc2ccc(-c3ccc(-c4nc5ccccc5[nH]4)s3)cc2)C1 (stereo unspecified),229
7,CS(=O)(=O)c1ccc(CCNCc2ccc(-c3ccc(CNC4Cc5ccccc5C4)cc3)nc2)cc1,757
8,O=C1C(c2ccccc2)=C(Nc2ccc(Cl)cc2)c2ccccc21,613
9,COc1ccc(C2=[N+]([O-])c3ccccc3C2=O)cc1,783
10,Cc1cccc2nc(-c3ccc(-c4ccc(CNCc5cnn(-c6ccccc6)n5)cc4)cc3)[nH]c12,428
11,O=c1cc(NCCCNCc2[nH]c3cc(Cl)ccc3c2Cl)[nH]c2ccccc12,910
12,CC1(C)N=C(N)N=C(N)N1CCc1ccccc1,47.4
13,CCCS(=O)(=O)N1CCC(CO)(Cc2ccccc2C(F)(F)F)CC1,885
14,CN(C)CCNCc1cccc(-c2ccc3c(Nc4ccc(Oc5ccccc5)cc4)ccnc3c2)c1,441
15,c1ccc2[nH]c(-c3ccc(-c4ccc(CN5CCN(CCN6CCOCC6)CC5)cc4)s3)nc2c1,280
16,Cc1nc(-c2ccc(-c3ccc(C(=O)Nc4ccc(Cl)c(N5CCN(C)CC5)c4)cc3)c(C)c2)no1,743
17,CCOc1ccc(C(C)NC(=O)c2ccc(OC)c(Br)c2)cc1OCC (stereo unspecified),706
18,N#Cc1cccc(NC(=O)Nc2cccc(OC3CCN(Cc4ccccc4)CC3)c2)c1,841
19,CC(CN1CCN(C)CC1)C(=O)Nc1ccc(-c2cccc(-c3nc4cc(F)ccc4[nH]3)c2)cc1 (stereo unspecified),522
20,Cc1nc2nc(N)nc(N)c2c(C)c1Cc1cccc(F)c1,341
21,Cc1cccc2nc(-c3cccc(-c4cccc(C(=O)N5CCCCC5CN5CCC(O)C5)c4)c3)[nH]c12 (stereo unspecified),463
22,O=C(/C=C/c1ccc(Cl)c(Cl)c1)NCCCCCCN1CCCN(C(=O)Nc2ccc(C(F)(F)F)cc2)CC1,579
23,COc1ccc2nccc([C@@H](O)CN3CCC(NC(=O)/C=C/c4cc(F)cc(Br)c4)CC3)c2c1,172
